Results from patent EP0118205A1, “(5-(2-Aminomethyl-imidazol-1-yl)-1,3-dialkyl-1H-pyrazol-4-yl)(aryl)methanones and processes for their production” (WARNER-LAMBERT COMPANY, priority 1983, dated 1984).
Counter-ions that a name gives are not always drawn.

Test system: amnesia produced by an electroconvulsive shock
Experiment: Reversal of amnesia produced by electroconvulsive shock (shelf-box foot shock memory test)
Format: in vivo, male mice (Carworth, CF-1 strain)
Conditions: mice, oral
Experimental: The effectiveness of the aforementioned compounds is determined by the test given below which is designed to show the compound's ability to reverse amnesia produced by an electroconvulsive shock.
One hundred male mice (Carworth, CF-1 strain, 19-21 g at time of shipment) are divided into five groups of 20 mice each. Each mouse is placed, one at a time, on a small shelf attached to the outside wall of a test box. In this position the mouse is suspended in space. Therefore, the mouse is motivated to step from the shelf through a conveniently placed small hole into the interior of the box. As soon as the mouse has all four feet within the semidarkened interior of the box, the grid floor of the box is electrified (1.5 milliamps, 3 second duration) to produce a strong pain-fear reaction from the animal. About five seconds thereafter, the mouse is removed from the test box and placed in a group holding cage.
Two hours after the above training, the mice are given a single electroconvulsive shock produced by 20 milliamps delivered for 1.0 seconds through the ears. Immediately thereafter, the mice are returned to the holding cage.
Two hours after the convulsive treatment, the mice are administered orally through a […] with the chemical being assessed. Usually three doses of the chemical will be tested at a time.
One hour after the drug treatment, the mice are tested for memory of the painful foot shock received within the shelf-box apparatus. This testing is accomplished by once again placing each mouse on the small shelf attached to the test box. Any mouse that stays on the shelf for 60 seconds without entering the box is counted as remembering the painful foot shock received within the box five hours earlier. Any mouse entering the box within the 60-second period is counted as having amnesia for the painful event.
The five groups of mice are treated as follows:
The percentage of amnesia reversal is determined as follows for each drug group: [formula]
The following table reports the percent of amnesia reversal of orally administered [(5-(2-aminomethyl)-5-methyl-lH- imidazol-1-yl)-1,3-dimethyl-lH-pyrazol-4-yi](2-chlorophenyl)methanone dihydrochloride.

| SMILES | Percent Amnesia Reversal (dose 1 mg/kg) [%] | Percent Amnesia Reversal (dose 10 mg/kg) [%] | Percent Amnesia Reversal (dose 100 mg/kg) [%] | Percent Amnesia Reversal (Rating) (dose 1 mg/kg) | Percent Amnesia Reversal (Rating) (dose 10 mg/kg) | Percent Amnesia Reversal (Rating) (dose 100 mg/kg) | % Amnesia Reversal (dose 0.63 mg/kg) [%] | Rating (dose 0.63 mg/kg) | % Amnesia Reversal (dose 1.25 mg/kg) [%] | Rating (dose 1.25 mg/kg) | % Amnesia Reversal (dose 2.50 mg/kg) [%] | Rating (dose 2.50 mg/kg) | % Amnesia Reversal (dose 5.00 mg/kg) [%] | Rating (dose 5.00 mg/kg) | % Amnesia Reversal (dose 20.00 mg/kg) [%] | Rating (dose 20.00 mg/kg) | % Amnesia Reversal (dose 80.00 mg/kg) [%] | Rating (dose 80.00 mg/kg) |
| --- | --- | --- | --- | --- | --- | --- | --- | --- | --- | --- | --- | --- | --- | --- | --- | --- | --- | --- |
| Cc1nn(C)c(-n2ccnc2CN2CCCC2)c1C(=O)c1ccccc1Cl [Example 3, (2-chlorophenyl)-[1,3-dimethyl-5-[2-(1-pyrrolidinylmethyl)-1H-imidazol--yl]-1H-pyrazol-4-yl]methanone dihydrochloride] | 79 | 27 | 25 | A (40 percent or more (active = A)) | C (25 to 39 percent (borderline = C)) | C (25 to 39 percent (borderline = C)) | – | – | – | – | – | – | – | – | – | – | – | – |
| Cc1nn(C)c(-n2c(C)cnc2CN(C)C)c1C(=O)c1ccccc1Cl [Example 2] | 64 | 64 | 85 | A (40 percent or more (active = A)) | A (40 percent or more (active = A)) | A (40 percent or more (active = A)) | – | – | – | – | – | – | – | – | – | – | – | – |
| Cc1nn(C)c(-n2c(CN3CCN(C)CC3)nc(C)c2C)c1C(=O)c1ccccc1Cl [Example 4, (2-Chlorophenyl)[1,3-dimethyl-5-[4,5-dimethyl-2-[(4-mthyl-piperazin-1-yl)methyl]-1H-imidazol-1-yl]-1H-pyrazol-4-yl]methanone] | 36 | 91 | 54 | C (25 to 39 percent (borderline = C)) | A (40 percent or more (active = A)) | A (40 percent or more (active = A)) | – | – | – | – | – | – | – | – | – | – | – | – |
| Cc1nn(C)c(-n2c(C)cnc2CN)c1C(=O)c1ccccc1Cl [Example 1, [5-((2-aminomethyl)-5-methyl-lH-imidazol-1-yl)-1,3-dimethyl-1H-pyrazol-4-yl] (2-chlorophenyl) methanone dihydrochloride] | – | – | – | – | – | – | 20 | N (0 to 29 percent (inactive = N)) | 40 | A (40 percent or more (active = A)) | 40 | A (40 percent or more (active = A)) | 62 | A (40 percent or more (active = A)) | 87 | A (40 percent or more (active = A)) | 44 | A (40 percent or more (active = A)) |
